Source: patent publication US7964624B1, “Inhibitors of serine proteases” (priority 2005, dated 2011)

These molecules were tested against T1, full-length hepatitis C viral protein NS3•4A (Hepatitis C virus genotype 1a, UniProt P27958) (assay: biochemical). Conditions: Enzyme Assay 2 (HCV NS3 Peptide Cleavage Assay) activity, apparent Ki class.
T1 construct: hexa-histidine (N); made in house; host or cells: Sf9 insect cells (baculovirus, pVL1392)
Parameters: species or system HCV sub-type strain 1a

Row | Structure (SMILES) | Ki
1 | CNC(=O)C(=O)[C@H](CC1CC1)NC(=O)[C@@H]1C[C@]2(CC(c3cccc(Cl)c3)=NO2)CN1C(=O)[C@@H](NC(=O)C1C[C@@H]1c1ccccc1)C(C)(C)C (stereo partly shown) [Compound 695] | < 100 nM
2 | CNC(=O)C(=O)[C@H](CC1CC1)NC(=O)[C@@H]1C[C@]2(CC(c3cccc(Cl)c3)=NO2)CN1C(=O)[C@@H](NC(=O)[C@@H]1C[C@H]1c1ccccc1)C(C)(C)C [Compound 696] | < 100 nM
3 | CCC[C@H](NC(=O)[C@@H]1C[C@]2(CC(c3cccc(Cl)c3)=NO2)CN1C(=O)[C@@H](NC(=O)[C@H]1C[C@@H]1c1ccccc1)C(C)(C)C)C(=O)C(=O)NC1CC1 [Compound 697] | < 100 nM
4 | CC(C)(C)[C@H](NC(=O)[C@H]1C[C@@H]1c1ccccc1)C(=O)N1C[C@@]2(CC(c3cccc(Cl)c3)=NO2)C[C@H]1C(=O)N[C@@H](CC1CC1)C(=O)C(N)=O [Compound 699] | < 100 nM
5 | CCC[C@H](NC(=O)[C@@H]1C[C@]2(CC(c3cccc(Cl)c3)=NO2)CN1C(=O)[C@@H](NC(=O)OC1CCCCCC1)C(C)(C)C)C(=O)C(=O)NC1CC1 [Compound 706] | < 100 nM
6 | COc1cc(C)c(C2=NO[C@]3(C2)C[C@@H](C(=O)N[C@@H](CC2CC2)C(=O)C(=O)NC2CC2)N(C(=O)[C@@H](NC(=O)CC2CCCCC2)C(C)(C)C)C3)cc1Cl [Compound 709] | 100 to 500 nM
7 | CNC(=O)C(=O)[C@H](CC1CC1)NC(=O)[C@@H]1C[C@]2(CC(c3cccc(Cl)c3)=NO2)CN1C(=O)[C@@H](NC(=O)CC1CC2CCC1C2)C(C)(C)C (stereo partly shown) [Compound 716] | < 100 nM
8 | CCC[C@H](NC(=O)[C@@H]1C[C@]2(CC(c3cc(C)c(OC)c(C)c3)=NO2)CN1C(=O)[C@@H](NC(=O)CC1CCCCC1)C(C)(C)C)C(=O)C(N)=O [Compound 724] | < 100 nM
9 | CNC(=O)C(=O)[C@H](CC1CC1)NC(=O)[C@@H]1C[C@]2(CC(c3cc(C)c(OC)c(C)c3)=NO2)CN1C(=O)[C@@H](NC(=O)CC1CCCCC1)C(C)(C)C [Compound 725] | < 100 nM
10 | COc1c(C)cc(C2=NO[C@]3(C2)C[C@@H](C(=O)N[C@@H](CC2CC2)C(=O)C(N)=O)N(C(=O)[C@@H](NC(=O)CC2CCCCC2)C(C)(C)C)C3)cc1C [Compound 726] | < 100 nM
11 | CCC[C@H](NC(=O)[C@@H]1C[C@]2(CC(c3cc(C)c(OC)c(C)c3)=NO2)CN1C(=O)[C@@H](NC(=O)CC1CCCCCC1)C(C)(C)C)C(=O)C(N)=O [Compound 728] | < 100 nM
12 | COc1c(C)cc(C2=NO[C@]3(C2)C[C@@H](C(=O)N[C@@H](CC2CC2)C(=O)C(N)=O)N(C(=O)[C@@H](NC(=O)CC2CCCCCC2)C(C)(C)C)C3)cc1C [Compound 730] | < 100 nM
13 | CCC[C@H](NC(=O)[C@@H]1C[C@]2(CC(c3cc(C)c(OC)c(C)c3)=NO2)CN1C(=O)[C@@H](NC(=O)CC(C)(C)C)C(C)(C)C)C(=O)C(N)=O [Compound 733] | < 100 nM
14 | CNC(=O)C(=O)[C@H](CC1CC1)NC(=O)[C@@H]1C[C@]2(CC(c3cccc(Cl)c3)=NO2)CN1C(=O)[C@@H](NC(=O)[C@H]1C[C@@H]1c1cccs1)C(C)(C)C [Compound 739] | < 100 nM
15 | CNC(=O)C(=O)[C@H](CC1CCC1)NC(=O)[C@@H]1C[C@]2(CC(c3cccc(Cl)c3)=NO2)CN1C(=O)[C@@H](NC(=O)CC1CCCCC1)C(C)(C)C [Compound 741] | < 100 nM
16 | CNC(=O)C(=O)[C@H](CC1CC1)NC(=O)[C@@H]1C[C@]2(CC(c3cc(Cl)c(OC)cc3OC)=NO2)CN1C(=O)[C@@H](NC(=O)OC1CCCC1)C(C)(C)C [Compound 744] | < 100 nM

Row | Structure (SMILES) | Ki
17 | COc1cc(OC)c(C2=NO[C@]3(C2)C[C@@H](C(=O)N[C@@H](CC2CC2)C(=O)C(=O)NC2CC2)N(C(=O)[C@@H](NC(=O)OC(C)(C)C)C(C)(C)C)C3)cc1Cl [Compound 745] | < 100 nM
18 | CNC(=O)C(=O)[C@H](CC1CC1)NC(=O)C1C[C@]2(CC(c3cccc(Cl)c3)=NO2)CN1C(=O)[C@@H](NC(=O)C1CCC1)C(C)(C)C (stereo partly shown) [Compound 749] | < 100 nM
19 | CNC(=O)C(=O)[C@H](CC1CC1)NC(=O)[C@@H]1C[C@]2(CC(c3cccc(Cl)c3)=NO2)CN1C(=O)[C@@H](NC(=O)[C@H]1C[C@@H]1C(C)C)C(C)(C)C [Compound 755] | < 100 nM
20 | COc1c(C)cc(C2=NO[C@]3(C2)C[C@@H](C(=O)N[C@@H](CC2CC2)C(=O)C(=O)NC2CC2)N(C(=O)[C@@H](NC(=O)OC(C)(C)C)C(C)(C)C)C3)cc1C [Compound 757] | < 100 nM
21 | CCC[C@H](NC(=O)[C@@H]1C[C@]2(CC(c3cc(C)c(OC)c(C)c3)=NO2)CN1C(=O)[C@@H](NC(=O)OC1CCCC1)C(C)(C)C)C(=O)C(N)=O [Compound 760] | < 100 nM
22 | COc1c(C)cc(C2=NO[C@]3(C2)C[C@@H](C(=O)N[C@@H](CC2CC2)C(=O)C(=O)NC2CC2)N(C(=O)[C@@H](NC(=O)CC2CCCCC2)C(C)(C)C)C3)cc1C [Compound 764] | 100 to 500 nM
23 | CNC(=O)C(=O)C(CC1CC1)NC(=O)[C@@H]1C[C@]2(CC(c3cc(C)c(OC)c(C)c3)=NO2)CN1C(=O)[C@@H](NC(=O)OC1CCCC1)C(C)(C)C (stereo partly shown) [Compound 768] | 100 to 500 nM
24 | COc1c(C)cc(C2=NO[C@]3(C2)C[C@@H](C(=O)NC(CC2CC2)C(=O)C(N)=O)N(C(=O)[C@@H](NC(=O)OC2CCCC2)C(C)(C)C)C3)cc1C (stereo partly shown) [Compound 769] | 100 to 500 nM
25 | CCC[C@H](NC(=O)[C@@H]1C[C@]2(CC(c3ccc(NC)c(Cl)c3)=NO2)CN1C(=O)[C@@H](NC(=O)CC1CCCCC1)C(C)(C)C)C(=O)C(=O)NC1CC1 [Compound 771] | < 100 nM
26 | CCC[C@H](NC(=O)[C@@H]1C[C@]2(CC(c3cccc(Cl)c3)=NO2)CN1C(=O)[C@@H](NC(=O)CC(C)(C)OC)C(C)(C)C)C(=O)C(=O)NC1CC1 [Compound 772] | < 100 nM
27 | CNC(=O)C(=O)[C@H](CC1CC1)NC(=O)[C@@H]1C[C@]2(CC(c3cccc(Cl)c3)=NO2)CN1C(=O)[C@@H](NC(=O)CC(C)(C)OC)C(C)(C)C [Compound 773] | 100 to 500 nM
28 | CCC[C@H](NC(=O)[C@@H]1C[C@]2(CC(c3cccc(Cl)c3)=NO2)CN1C(=O)[C@@H](NC(=O)CC1CC2CCC1C2)C(C)(C)C)C(=O)C(N)=O (stereo partly shown) [Compound 779] | < 100 nM
29 | CCC[C@H](NC(=O)[C@@H]1C[C@]2(CC(c3cc(C)c(OCC)c(Cl)c3)=NO2)CN1C(=O)[C@@H](NC(=O)OC1CCCC1)C(C)(C)C)C(=O)C(=O)NC [Compound 785] | < 100 nM
30 | CCC[C@H](NC(=O)[C@@H]1C[C@]2(CC(c3cccc(Cl)n3)=NO2)CN1C(=O)[C@@H](NC(=O)CC1CCCCC1)C(C)(C)C)C(=O)C(=O)NC1CC1 [Compound 786] | 100 to 500 nM
31 | CNC(=O)C(=O)[C@H](CC1CC1)NC(=O)[C@@H]1C[C@]2(CC(c3cc(C)c(OC)c(C)c3)=NO2)CN1C(=O)[C@@H](NC(=O)CC1CCCCC1)C(C)(C)OC [Compound 788] | < 100 nM

Same assay, conditions: Enzyme Assay 2, HCV NS3 Peptide Cleavage Assay, apparent Ki

Row | Structure (SMILES) | Ki
32 | CNC(=O)C(=O)[C@H](CC1CC1)NC(=O)[C@@H]1C[C@]2(CC(c3cc(C)c(OC)c(C)c3)=NO2)CN1C(=O)[C@@H](NC(=O)[C@@H]1CC1c1ccccc1)C(C)(C)C (stereo partly shown) [Compound 798] | < 100 nM
33 | CCC[C@H](NC(=O)[C@@H]1C[C@]2(CC(c3cc(Cl)c(OC)cc3OC)=NO2)CN1C(=O)[C@@H](NC(=O)[C@@H]1CC1c1ccccc1)C(C)(C)C)C(=O)C(N)=O (stereo partly shown) [Compound 801] | < 100 nM
34 | CCC[C@H](NC(=O)[C@@H]1C[C@]2(CC(c3cc(Cl)ccc3N(C)C)=NO2)CN1C(=O)[C@@H](NC(=O)CC1CCCCC1)C(C)(C)C)C(=O)C(=O)NC1CC1 [Compound 803] | 100 to 500 nM
35 | CC(C)(C)[C@H](NC(=O)[C@H]1C[C@@H]1c1ccccc1)C(=O)N1C[C@@]2(CC(c3cccc4cccnc34)=NO2)C[C@H]1C(=O)N[C@@H](CC1CC1)C(=O)C(N)=O [Compound 805] | < 100 nM
36 | CC(C)(C)[C@H](NC(=O)[C@@H]1C[C@H]1c1ccccc1)C(=O)N1C[C@@]2(CC(c3cccc4cccnc34)=NO2)C[C@H]1C(=O)N[C@@H](CC1CC1)C(=O)C(N)=O [Compound 806] | < 100 nM
37 | CNC(=O)C(=O)[C@H](CC1CC1)NC(=O)[C@@H]1C[C@]2(CC(c3cccc4cccnc34)=NO2)CN1C(=O)[C@@H](NC(=O)[C@H]1C[C@@H]1c1ccccc1)C(C)(C)C [Compound 807] | 100 to 500 nM
38 | COc1c(C)cc(C2=NO[C@]3(C2)C[C@@H](C(=O)N[C@@H](CC2CC2)C(=O)C(N)=O)N(C(=O)[C@@H](NC(=O)[C@@H]2C[C@H]2c2ccccc2)C(C)(C)C)C3)cc1Cl [Compound 811] | < 100 nM
39 | CCOc1c(C)cc(C2=NO[C@]3(C2)C[C@@H](C(=O)N[C@@H](CC2CC2)C(=O)C(=O)NC)N(C(=O)[C@@H](NC(=O)OC2CCCC2)C(C)(C)C)C3)cc1Cl [Compound 817] | < 100 nM
40 | CCC[C@H](NC(=O)[C@@H]1C[C@]2(CC(c3cc(Cl)c(OCC)cc3OC)=NO2)CN1C(=O)[C@@H](NC(=O)CC1CCCCC1)C(C)(C)C)C(=O)C(=O)NC1CC1 [Compound 818] | < 100 nM
41 | CCC[C@H](NC(=O)[C@@H]1C[C@]2(CC(c3cc(Cl)c(C)cc3OC)=NO2)CN1C(=O)[C@@H](NC(=O)CC1CCCCC1)C(C)(C)C)C(=O)C(=O)NC1CC1 [Compound 820] | < 100 nM
42 | CCC[C@H](NC(=O)[C@@H]1C[C@]2(CC(c3cccc(Cl)c3)=NO2)CN1C(=O)[C@@H](NC(=O)C1(C#N)CC1)C(C)(C)C)C(=O)C(=O)NC1CC1 [Compound 823] | < 100 nM
43 | CCC[C@H](NC(=O)[C@@H]1C[C@]2(CC(c3cccc(Cl)c3)=NO2)CN1C(=O)[C@@H](NC(=O)[C@H]1CC12CCOCC2)C(C)(C)C)C(=O)C(=O)NC1CC1 [Compound 826] | < 100 nM
44 | CCC[C@H](NC(=O)[C@@H]1C[C@]2(CC(c3cc(C)c(OCC)c(C)c3)=NO2)CN1C(=O)[C@@H](NC(=O)[C@@H]1C[C@H]1c1ccccc1)C(C)(C)C)C(=O)C(=O)NC [Compound 828] | < 100 nM
45 | CNC(=O)C(=O)[C@H](CC1CC1)NC(=O)[C@@H]1C[C@]2(CC(c3cccc(Cl)c3)=NO2)CN1C(=O)[C@@H](NC(=O)[C@@H]1C[C@H]1c1c[nH]cn1)C(C)(C)C [Compound 832] | 100 to 500 nM

Same assay, conditions: read-out: Enzyme Assay 2 (HCV NS3 Peptide Cleavage Assay) activity; apparent Ki class

Row | Structure (SMILES) | Ki
46 | CNC(=O)C(=O)[C@H](CC1CC1)NC(=O)[C@@H]1C[C@]2(CC(c3cccc(Cl)c3)=NO2)CN1C(=O)[C@@H](NC(=O)CC1CC2CCC1C2)C(C)(C)C (stereo partly shown) [Compound 777] | < 100 nM
